Literature values in patent US20220287302A1, “COMPOSITIONS FOR PATHOGEN IN[…] PATHOGEN REDUCTION MANAGEMENT” (priority 2020, published 2022).

O=c1c(O)c(O)c1=O [Squaric acid, 3,4-dihydroxy-3-cyclobutene-1,2 dione]
pKa for the first proton (first proton): 1.5
pKa for the second proton (second proton): 3.4
